Patent publication US20110172223A1, “Substituted Aryl Sulfone Derivatives as Calcium Channel Blockers” (priority 2008, published 2011)

Experiments:
[1] = target: T1, Human Cav2.2 channels (Homo sapiens, UniProt Q00975); assay: Fluorescent assay for Cav2.2 channels using potassium depolarization to initiate channel opening (Assay Example 1); type: cell-based; conditions: Table 2
T1 construct: expressed in transfected cells
Text: Fluorescent Assay for Cav2.2 Channels Using Potassium Depolarization to Initiate Channel Opening
(§1) Human Cav2.2 channels were stably expressed in KEK293 cells along with alpha2-delta and beta subunits of voltage-gated calcium channels. An inwardly rectifying potassium channel (Kir2.3) was also expressed in these cells to allow more precise control of the cell membrane potential by extracellular potassium concentration. At low bath potassium concentration, the membrane potential is relatively negative, and is depolarized as the bath potassium concentration is raised. In this way, the bath potassium concentration can be used to regulate the voltage-dependent conformations of the channels. […]
(§2) Calcium influx through Cav2.2 channels is determined using a calcium-sensitive fluorescent dye in combination with a fluorescent plate reader. Fluorescent changes were measured with either a VIPR (Aurora Instruments) or FLIPR (Molecular Devices) plate reader.
(§3) • 1. […] Read cell plate on VIPR instrument, Excitation=480 nm, Emission=535 nm • 9. With VIPR continuously reading, add 0.1 ml (96-well plate) or 0.03 ml (384-well plate) of Depolarization Buffer, which is 2× the final assay concentration, to the cell plate.

[2] = target: T2, N-type calcium channel (CaV2.2) (Homo sapiens, UniProt Q00975); assay: N-type calcium channel antagonist activity in the aforementioned assays (Assay Examples 1-3: fluorescent, IonWorks HT, PatchXpress/manual patch clamp); type: cell-based; conditions: antagonizing the N-type calcium channel; which of Assay Examples 1-3 is not specified
T2 construct: expressed in transfected cells
T2 sequence (Q00975 whole entry): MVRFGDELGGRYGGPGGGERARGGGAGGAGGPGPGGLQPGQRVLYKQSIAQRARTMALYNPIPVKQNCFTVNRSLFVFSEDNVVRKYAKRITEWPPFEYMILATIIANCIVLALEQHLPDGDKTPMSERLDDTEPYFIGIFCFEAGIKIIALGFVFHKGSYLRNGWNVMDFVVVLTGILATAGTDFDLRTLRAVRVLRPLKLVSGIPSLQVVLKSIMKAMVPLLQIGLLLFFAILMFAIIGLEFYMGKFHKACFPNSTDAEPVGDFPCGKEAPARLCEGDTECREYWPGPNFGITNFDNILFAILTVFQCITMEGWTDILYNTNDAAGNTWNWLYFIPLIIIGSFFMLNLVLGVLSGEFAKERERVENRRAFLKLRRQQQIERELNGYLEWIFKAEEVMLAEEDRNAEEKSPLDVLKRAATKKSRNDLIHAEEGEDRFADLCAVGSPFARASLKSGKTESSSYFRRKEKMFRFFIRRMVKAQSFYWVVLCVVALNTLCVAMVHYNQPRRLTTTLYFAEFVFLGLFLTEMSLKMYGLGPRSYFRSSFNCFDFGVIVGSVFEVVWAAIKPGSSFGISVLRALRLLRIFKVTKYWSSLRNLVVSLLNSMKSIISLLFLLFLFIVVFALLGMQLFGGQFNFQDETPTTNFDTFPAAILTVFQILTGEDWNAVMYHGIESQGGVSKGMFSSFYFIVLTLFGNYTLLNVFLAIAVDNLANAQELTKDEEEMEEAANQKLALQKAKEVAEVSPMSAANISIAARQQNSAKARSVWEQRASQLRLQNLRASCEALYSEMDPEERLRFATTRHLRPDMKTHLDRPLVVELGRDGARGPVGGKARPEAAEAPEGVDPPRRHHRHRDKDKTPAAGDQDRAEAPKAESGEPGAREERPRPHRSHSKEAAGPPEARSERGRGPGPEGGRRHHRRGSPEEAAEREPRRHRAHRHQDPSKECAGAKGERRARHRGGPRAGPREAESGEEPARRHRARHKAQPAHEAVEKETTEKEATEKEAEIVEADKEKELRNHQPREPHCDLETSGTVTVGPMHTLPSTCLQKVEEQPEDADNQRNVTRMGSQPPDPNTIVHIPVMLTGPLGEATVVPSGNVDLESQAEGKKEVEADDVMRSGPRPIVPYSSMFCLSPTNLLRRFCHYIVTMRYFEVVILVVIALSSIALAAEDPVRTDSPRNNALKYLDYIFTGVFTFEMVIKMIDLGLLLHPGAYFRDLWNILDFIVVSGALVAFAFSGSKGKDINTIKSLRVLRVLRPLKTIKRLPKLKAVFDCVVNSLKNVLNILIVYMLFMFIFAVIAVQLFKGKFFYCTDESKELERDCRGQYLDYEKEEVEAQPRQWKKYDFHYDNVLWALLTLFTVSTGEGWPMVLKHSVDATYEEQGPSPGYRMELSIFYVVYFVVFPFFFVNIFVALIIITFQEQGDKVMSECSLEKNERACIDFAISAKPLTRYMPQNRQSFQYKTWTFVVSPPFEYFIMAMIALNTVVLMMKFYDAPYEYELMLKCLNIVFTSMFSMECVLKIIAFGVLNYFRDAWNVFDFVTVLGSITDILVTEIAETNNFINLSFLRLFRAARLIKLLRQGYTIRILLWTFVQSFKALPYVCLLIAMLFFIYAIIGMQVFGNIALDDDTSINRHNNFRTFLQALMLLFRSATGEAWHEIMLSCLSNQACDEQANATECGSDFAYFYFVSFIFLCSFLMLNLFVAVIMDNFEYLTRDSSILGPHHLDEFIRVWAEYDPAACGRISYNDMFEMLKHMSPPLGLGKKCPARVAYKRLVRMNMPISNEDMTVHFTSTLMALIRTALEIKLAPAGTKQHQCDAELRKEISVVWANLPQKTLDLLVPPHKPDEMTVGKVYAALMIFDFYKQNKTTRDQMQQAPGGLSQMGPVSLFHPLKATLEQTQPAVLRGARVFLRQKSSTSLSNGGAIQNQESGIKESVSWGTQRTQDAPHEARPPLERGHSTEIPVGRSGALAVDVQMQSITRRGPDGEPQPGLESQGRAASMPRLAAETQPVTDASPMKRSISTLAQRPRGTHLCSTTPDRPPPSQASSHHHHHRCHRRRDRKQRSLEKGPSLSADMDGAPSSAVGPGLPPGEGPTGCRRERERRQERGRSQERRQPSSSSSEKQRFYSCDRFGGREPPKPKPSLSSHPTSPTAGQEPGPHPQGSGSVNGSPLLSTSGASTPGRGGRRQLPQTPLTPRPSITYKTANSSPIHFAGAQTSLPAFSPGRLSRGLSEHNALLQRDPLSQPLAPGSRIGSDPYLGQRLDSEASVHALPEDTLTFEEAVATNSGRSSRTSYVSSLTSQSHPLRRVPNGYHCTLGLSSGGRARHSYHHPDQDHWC
T2 sequence (P54289 25-946 partner limits assumed): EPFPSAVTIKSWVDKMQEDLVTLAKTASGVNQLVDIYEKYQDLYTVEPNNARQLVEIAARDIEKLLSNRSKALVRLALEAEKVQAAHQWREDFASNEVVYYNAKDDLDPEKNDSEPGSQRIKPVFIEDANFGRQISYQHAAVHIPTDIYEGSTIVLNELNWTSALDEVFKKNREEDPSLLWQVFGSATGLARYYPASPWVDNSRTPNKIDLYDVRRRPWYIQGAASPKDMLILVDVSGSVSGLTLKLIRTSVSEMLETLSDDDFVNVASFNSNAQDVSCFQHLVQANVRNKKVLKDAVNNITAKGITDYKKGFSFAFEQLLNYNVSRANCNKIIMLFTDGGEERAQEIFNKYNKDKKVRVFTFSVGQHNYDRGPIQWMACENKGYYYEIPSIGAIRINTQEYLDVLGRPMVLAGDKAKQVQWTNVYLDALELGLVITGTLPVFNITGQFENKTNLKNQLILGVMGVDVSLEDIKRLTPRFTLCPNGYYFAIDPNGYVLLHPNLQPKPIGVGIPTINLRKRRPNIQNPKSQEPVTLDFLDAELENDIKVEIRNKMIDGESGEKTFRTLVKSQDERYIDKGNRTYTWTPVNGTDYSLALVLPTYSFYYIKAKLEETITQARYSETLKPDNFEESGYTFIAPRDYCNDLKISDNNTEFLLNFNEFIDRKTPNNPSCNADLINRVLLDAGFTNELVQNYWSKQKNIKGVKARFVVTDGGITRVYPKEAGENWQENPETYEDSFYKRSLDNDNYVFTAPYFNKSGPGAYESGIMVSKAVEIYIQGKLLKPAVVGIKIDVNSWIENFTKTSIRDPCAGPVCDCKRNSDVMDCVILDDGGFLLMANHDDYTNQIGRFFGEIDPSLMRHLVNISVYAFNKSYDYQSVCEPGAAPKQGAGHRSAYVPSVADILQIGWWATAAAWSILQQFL
T2 sequence (P54289 947-1103 partner limits assumed): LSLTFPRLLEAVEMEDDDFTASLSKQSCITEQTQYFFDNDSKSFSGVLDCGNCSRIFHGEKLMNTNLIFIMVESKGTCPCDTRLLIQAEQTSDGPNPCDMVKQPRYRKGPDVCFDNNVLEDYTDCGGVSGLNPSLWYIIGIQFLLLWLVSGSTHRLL
T2 sequence (P54284 whole entry partner): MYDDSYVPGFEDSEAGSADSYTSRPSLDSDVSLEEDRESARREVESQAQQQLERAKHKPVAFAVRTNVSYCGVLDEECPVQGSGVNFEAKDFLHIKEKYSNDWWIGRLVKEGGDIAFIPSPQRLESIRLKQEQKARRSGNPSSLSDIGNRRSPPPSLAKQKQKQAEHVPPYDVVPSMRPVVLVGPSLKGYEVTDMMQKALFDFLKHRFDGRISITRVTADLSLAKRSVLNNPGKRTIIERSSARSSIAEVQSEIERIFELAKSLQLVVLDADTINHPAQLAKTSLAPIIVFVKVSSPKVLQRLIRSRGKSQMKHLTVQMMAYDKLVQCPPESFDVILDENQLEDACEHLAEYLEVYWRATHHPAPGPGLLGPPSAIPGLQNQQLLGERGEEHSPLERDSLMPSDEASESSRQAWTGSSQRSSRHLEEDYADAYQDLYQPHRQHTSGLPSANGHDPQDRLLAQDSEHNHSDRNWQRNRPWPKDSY
Text: as §1, §2, §3
Block of N-type calcium channels is evaluated utilizing the IonWorks HT 384 well automated patch clamp electrophysiology device. […]

T1 sequence (Q00975 whole entry): as the sequence (Q00975 whole entry) above
T1 sequence (P54289 25-946 partner limits assumed): as the sequence (P54289 25-946 partner limits assumed) above
T1 sequence (P54289 947-1103 partner limits assumed): as the sequence (P54289 947-1103 partner limits assumed) above
T1 sequence (P54284 whole entry partner): as the sequence (P54284 whole entry partner) above

CC(C)(C1CN(c2ccc(C(F)(F)F)cc2)C(=O)O1)S(=O)(=O)c1cccc(C(F)(F)F)c1 (stereo not drawn)
IC50 [1]: 745 nM

CC(C)([C@H]1CN(c2ccc(C(F)(F)F)cn2)C(=O)CO1)S(=O)(=O)c1cccc(C(F)(F)F)c1 [Example 6, (6R)-6-(1-methyl-1-{[3-(trifluoromethyl)phenyl]sulfonyl}ethyl)-4-[5-(trifluoromethyl)pyridin-2-yl]morpholin-3-one]
IC50 [2]: 1520 nM

CC(C)([C@H]1CN(c2ccc(C(F)(F)F)cn2)C(=O)CO1)S(=O)(=O)c1cccc(C(F)(F)F)c1 [drawing 26]
IC50 [1]: 1510 nM
